According to patent US11275071B2, “Sensor dyes for real-time sensing of metal ions in aqueous environments” (UWM Research Foundation, Inc., priority 2015, dated 2022):
“Also recorded” adds a separate entry of the source. Where two headings read alike, the source gives them in different places. One block for each molecule: values may come before it.

Legend:
[1] = Formation and dissociation constants of QAR, titration with metal ion standard at pH 8.8; type: binding; conditions: for KF / KD: 1:2 complex; for KD: computed from formation constant; for log KF: M^2+ + 2HQAR^− → M(QAR)2^2− + 2H^+; for Kd: read-out: square root over (KD)
Description: The formation constants (KF) were determined for QAR and different metals. The relative binding affinities characterized the selectivity of the sensor, i.e. the sensor's preference for binding one metal over another. Also, the corresponding dissociation constants (KD) were computed from the formation constants. This metric yielded the lower performance limit of the sensor that is thermodynamically possible (for a given set of conditions), and it can provide the practical operating range of the sensor.
The absorbance spectra were recorded using a Perkin-Elmer Lambda 650 spectrophotometer while a QAR solution was titrated with a metal ion standard. Scout titrations were performed to obtain an estimate range for the KD. Then, the titration was performed with a sufficiently low initial dye concentration (approximately equal to the KD) for proper determination. Also, measurements were made using 10 cm longpath cuvettes. The increased pathlength compensated for the reduced dye concentration so measurements were made within the instrumental limitations (i.e. absorbance values greater than 0.05 absorbance units).
The dye solution was pH-buffered at such that only one protonated form of the free dye and complex is present. […] At pH 8.8, the following expression describes the metal-dye complex formation where HQAR^− predominates as the free dye and M(QAR)2^2 predominates as the metal complex, and minimal formation of metal hydroxides is expected. M^2++2HQAR^−→M(QAR)2^2−+2H^+
The data was analyzed in ReactLab Equilibria to determine the formation constant using the above model, and initial concentrations of HQAR and the respective metal. This software performs regression with the entire spectrum to calculate the formation constants specified in the model. Analysis was performed several times with different initial “guesses” for parameter values to ensure the algorithm yielded reproducible results.
The corresponding K values were calculated and are shown in the table below where the standard error from regression is given as the uncertainty values. The accuracy of the values is limited for cobalt and copper because the absorbance changes were too steep to properly capture the hyperbolic nature of the curve. And, the experimental conditions could not be adjusted to yield the same level of instrumental sensitivity and accuracy as the other metals. However, a relative comparison of the binding affinities is valid.

[2] = Response of QAR and PAR to metal ions at pH 7 (absorbance spectrum, colour); type: binding
Description: (§1) The response of QAR to different metal ions was measured to determine its selectivity and compared to another sensor (PAR), which has a similar structure. Samples were prepared with different metal standards at pH 7, and the absorbance spectrum of each sample was recorded (FIG. 6). Also, photographs of the samples are provided below to allow for a visual comparison (FIG. 7).
(§2) The spectra of QAR were compared to the spectrum of the free dyes, and the general response of QAR at pH 7 can be described as follows: […]

[3] = Response of QAR and PAR to metal ions at pH 7, overall comparison; type: binding
Description: as §1, §2

[4] = Decomposition of metal-QAR complexes under acidic conditions, overall; type: physicochemical
Description: (§3) The dissociation constant under acidic conditions and the pKA for the para-hydroxy group on the metal-QAR complexes was determined. A set of samples containing QAR and a single metal standard, were prepared in a pH buffer containing 2 mM Triton X-100 surfactant. […] The absorption spectrum of each sample was recorded with the Perkin-Elmer Lambda 650 spectrophotometer.
(§4) Analysis was performed in ReactLab Equilibria. The protonation of the para-hydroxy groups was modelled using the first reaction. Here, the pH micro-constants (stepwise protonation of each dye molecule in the complex) could not be resolved, so the two para-hydroxy groups in the complex were treated as both protonated or both deprotonated in the model. The decomposition of the complex under acidic conditions was modelled using the second reaction. M(QAR)2^2−+2H^+→M(QAR)2H2 M(QAR)2H2+2H^+→[…]+2H3QAR^+
Decomposition of the metal-QAR complexes occurs below pH 3. The dissociation constant is different for each metal. For example, copper has the highest resistance and zinc has the lowest resistance to decomplexation under acidic conditions. Also, this trend [Cu(II)>Co(II)>Ni(II)>Zn(II)] matches the trend in the binding affinities, and the two effects may be related to the specific interactions that occur in the binding of each metal. […]

[5] = Protonation states of free QAR, pKA by absorption and ReactLab Equilibria (Example 29); type: physicochemical; conditions: free dye
Description: QAR has three protonation sites: The heterocyclic nitrogen in the quinoline moiety, and the para-hydroxyl group and the ortho-hydroxyl group in the resorcinol ring. The ortho-hydroxyl group is involved in binding with the metal.
The acid dissociation constants (pKA) and spectral profiles were determined for QAR. […] The data was analyzed using ReactLab Equilibria (JPlus Consulting Pty Ltd, Australia) to determine the resulting pKA values. QAR has three protonation sites, so four species were used for the analysis model. The pKA values were assigned using values from well-known molecules with a similar structure.
Error analysis was performed using the measurement uncertainties (pH meter and probe, temperature, etc.) and the conventional rules of error propagation. […] The total uncertainty was estimated from the error analysis (TABLE 5).

[6] = Protonation states of metal-QAR complexes; type: physicochemical; conditions: M(QAR)2H2 decomposition under acidic conditions, midpoint of species distribution curve
Description: as §3, §4
The total uncertainty was estimated from the measurements involved in the experiment using rules of conventional error propagation (TABLE 7).

[7] = accuracy limited, with Co(II) ion
[8] = accuracy limited, with Cu(II) ion

- KD [1, 7]: (5.30 ± 0.10) × 10^−14 M^2
- KD [1, 8]: (5.40 ± 1.15) × 10^−17 M^2
- KD ([1]; with Hg(II) ion): (1.03 ± 0.04) × 10^−13 M^2
- KD ([1]; with Ni(II) ion): (2.66 ± 0.06) × 10^−13 M^2
- KD ([1]; with Zn(II) ion): (3.24 ± 0.03) × 10^−13 M^2
- log KF [1, 8]: 16.268 M^−2
- log KF ([1]; with Hg(II) ion): 12.986 M^−2
- log KF ([1]; with Ni(II) ion): 12.575 M^−2
- log KF ([1]; with Zn(II) ion): 12.490 M^−2
- Kd [1, 7]: 230 nM
- Kd [1, 8]: 7.35 nM
- Kd ([1]; with Hg(II) ion): 321 nM
- Kd ([1]; with Ni(II) ion): 516 nM
- Kd ([1]; with Zn(II) ion): 569 nM
- binding selectivity compared with PAR [3]: higher binding selectivity
- trend of resistance to decomplexation under acidic conditions [4]: Cu(II)>Co(II)>Ni(II)>Zn(II)
- pKa ([5]; site Quinoline N): 2.42
- pKa ([5]; site o-OH): 13
- pKA ([5]; site p-OH): 6.539
- pKa ([5]; site p-OH): 6.5
- Acidic Dissociation ([6]; Co(II)-QAR complex): 1.593
- Acidic Dissociation ([6]; Cu(II)-QAR complex): 0.635
- Acidic Dissociation ([6]; Ni(II)-QAR complex): 2.455
- Acidic Dissociation ([6]; Zn(II)-QAR complex): 2.558
Compound: Oc1ccc(N=Nc2cccc3cccnc23)c(O)c1 [QAR, 4-(quinolin-8-yldiazenyl)benzene-1,3-diol]
- KF [1, 7]: (1.86 ± 0.03) × 10^13 M^−2
- KF [1, 8]: (1.85 ± 0.40) × 10^16 M^−2
- KF ([1]; with Hg(II) ion): (9.68 ± 0.45) × 10^12 M^−2
- KF ([1]; with Ni(II) ion): (3.76 ± 0.09) × 10^12 M^−2
- KF ([1]; with Zn(II) ion): (3.09 ± 0.05) × 10^12 M^−2
- response to Al(III) (spectrum compared to free dye, colour of complex) [2]: Weakly Sensitive
- response to Ca(II) (spectrum compared to free dye, colour of complex) [2]: Insensitive; also recorded: did not undergo a spectral change
- response to Cd(II) (spectrum compared to free dye, colour of complex) [2]: Weakly Sensitive
- response to Co(II) (spectrum compared to free dye, colour of complex) [2]: Strongly Sensitive; also recorded: magenta complex
- response to Cr(III) (spectrum compared to free dye, colour of complex) [2]: Insensitive
- response to Cu(II) (spectrum compared to free dye, colour of complex) [2]: Strongly Sensitive; also recorded: orange complex
- response to Fe(III) (spectrum compared to free dye, colour of complex) [2]: Severe aggregation; also recorded: does not appreciably complex; also recorded: Aggregation occurs
- response to Hg(II) (spectrum compared to free dye, colour of complex) [2]: transparent complex
- response to K(I) (spectrum compared to free dye, colour of complex) [2]: Insensitive; also recorded: did not undergo a spectral change
- response to Mg(II) (spectrum compared to free dye, colour of complex) [2]: Insensitive; also recorded: did not undergo a spectral change
- response to Mn(II) (spectrum compared to free dye, colour of complex) [2]: Weakly Sensitive; also recorded: does not appreciably complex
- response to Na(I) (spectrum compared to free dye, colour of complex) [2]: Insensitive; also recorded: did not undergo a spectral change
- response to Ni(II) (spectrum compared to free dye, colour of complex) [2]: Strongly Sensitive; also recorded: orange complex
- response to Pb(II) (spectrum compared to free dye, colour of complex) [2]: Insensitive; also recorded: does not appreciably complex
- response to Sn(II) (spectrum compared to free dye, colour of complex) [2]: Insensitive; also recorded: does not appreciably complex
- response to Zn(II) (spectrum compared to free dye, colour of complex) [2]: Strongly Sensitive; also recorded: orange complex
- spectral sensitivity compared with PAR [3]: higher spectral sensitivity

Compound: Oc1ccc(N=Nc2ccccn2)c(O)c1 [PAR, 4-(2-pyridylazo)resorcinol, reference compound]
- response to Ca(II) (spectrum compared to free dye, colour of complex) [2]: did not undergo a spectral change
- response to Cd(II) (spectrum compared to free dye, colour of complex) [2]: orange complexes
- response to Co(II) (spectrum compared to free dye, colour of complex) [2]: magenta complex
- response to Cu(II) (spectrum compared to free dye, colour of complex) [2]: magenta complex
- response to Fe(III) (spectrum compared to free dye, colour of complex) [2]: magenta complex; also recorded: Aggregation occurs
- response to Hg(II) (spectrum compared to free dye, colour of complex) [2]: brown, globular suspension
- response to K(I) (spectrum compared to free dye, colour of complex) [2]: did not undergo a spectral change
- response to Mg(II) (spectrum compared to free dye, colour of complex) [2]: did not undergo a spectral change
- response to Na(I) (spectrum compared to free dye, colour of complex) [2]: did not undergo a spectral change
- response to Ni(II) (spectrum compared to free dye, colour of complex) [2]: orange complexes
- response to Pb(II) (spectrum compared to free dye, colour of complex) [2]: magenta complex
- response to Zn(II) (spectrum compared to free dye, colour of complex) [2]: orange complexes
